Measurements published in ChEMBL document CHEMBL3132769, “Fragment growing to retain or alter the selectivity of anchored kinase hinge-binding fragments” (Medchemcomm, 2014).

How the values were obtained:
[1] = molecular target: Protein kinase C delta type (Homo sapiens) (UniProt Q05655); test: Inhibition of human truncated PKC delta expressed in baculovirus assessed as substrate phosphorylation using fluorescence-labelled peptides as substrate at 95 uM after 90 mins by microfluidic peptide phosphorylation assay
Chain of Protein kinase C delta type (Homo sapiens) (Q05655 whole entry, looked up, the tested form may be a part): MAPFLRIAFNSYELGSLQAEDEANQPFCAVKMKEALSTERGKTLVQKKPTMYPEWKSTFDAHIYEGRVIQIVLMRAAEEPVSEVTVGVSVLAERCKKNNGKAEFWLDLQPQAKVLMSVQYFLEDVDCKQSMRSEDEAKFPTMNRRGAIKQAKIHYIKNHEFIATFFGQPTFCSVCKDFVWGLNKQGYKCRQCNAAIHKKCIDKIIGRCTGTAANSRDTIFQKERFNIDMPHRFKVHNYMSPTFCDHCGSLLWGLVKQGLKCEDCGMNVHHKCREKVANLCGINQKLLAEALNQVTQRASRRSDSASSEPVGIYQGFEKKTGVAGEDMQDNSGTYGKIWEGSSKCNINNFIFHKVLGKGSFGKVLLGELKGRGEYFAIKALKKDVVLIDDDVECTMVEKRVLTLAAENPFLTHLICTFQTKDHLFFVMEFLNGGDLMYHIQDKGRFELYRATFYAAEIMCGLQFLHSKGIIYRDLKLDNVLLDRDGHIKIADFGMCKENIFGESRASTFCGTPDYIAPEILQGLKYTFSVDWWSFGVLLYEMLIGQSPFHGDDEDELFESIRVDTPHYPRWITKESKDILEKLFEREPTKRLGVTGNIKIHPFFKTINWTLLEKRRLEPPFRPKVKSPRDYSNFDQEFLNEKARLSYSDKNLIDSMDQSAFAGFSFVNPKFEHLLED

[2] = molecular target: T1, Mitogen-activated protein kinase 12 (Homo sapiens) (UniProt P53778); test: Inhibition of human full length p38 gamma expressed in Escherichia coli cell assessed as substrate phosphorylation using fluorescence-labelled peptides as substrate at 95 uM after 90 mins by microfluidic peptide phosphorylation assay
T1 sequence (whole entry): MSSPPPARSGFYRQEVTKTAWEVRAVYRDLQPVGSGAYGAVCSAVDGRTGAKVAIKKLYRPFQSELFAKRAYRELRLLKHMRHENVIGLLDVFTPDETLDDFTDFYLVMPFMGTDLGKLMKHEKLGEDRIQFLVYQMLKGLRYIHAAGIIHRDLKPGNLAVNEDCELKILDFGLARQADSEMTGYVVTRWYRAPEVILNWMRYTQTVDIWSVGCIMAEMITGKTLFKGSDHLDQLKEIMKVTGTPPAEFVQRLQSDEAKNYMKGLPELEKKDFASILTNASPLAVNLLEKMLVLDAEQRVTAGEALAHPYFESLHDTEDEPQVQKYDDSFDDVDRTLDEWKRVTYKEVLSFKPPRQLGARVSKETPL

[3] = molecular target: MAP/microtubule affinity-regulating kinase 3 (Homo sapiens) (UniProt P27448); test: Inhibition of human full length c-TAK1 expressed in Escherichia coli cell assessed as substrate phosphorylation using fluorescence-labelled peptides as substrate at 95 uM after 90 mins by microfluidic peptide phosphorylation assay
Chain of MAP/microtubule affinity-regulating kinase 3 (Homo sapiens) (P27448 whole entry, looked up): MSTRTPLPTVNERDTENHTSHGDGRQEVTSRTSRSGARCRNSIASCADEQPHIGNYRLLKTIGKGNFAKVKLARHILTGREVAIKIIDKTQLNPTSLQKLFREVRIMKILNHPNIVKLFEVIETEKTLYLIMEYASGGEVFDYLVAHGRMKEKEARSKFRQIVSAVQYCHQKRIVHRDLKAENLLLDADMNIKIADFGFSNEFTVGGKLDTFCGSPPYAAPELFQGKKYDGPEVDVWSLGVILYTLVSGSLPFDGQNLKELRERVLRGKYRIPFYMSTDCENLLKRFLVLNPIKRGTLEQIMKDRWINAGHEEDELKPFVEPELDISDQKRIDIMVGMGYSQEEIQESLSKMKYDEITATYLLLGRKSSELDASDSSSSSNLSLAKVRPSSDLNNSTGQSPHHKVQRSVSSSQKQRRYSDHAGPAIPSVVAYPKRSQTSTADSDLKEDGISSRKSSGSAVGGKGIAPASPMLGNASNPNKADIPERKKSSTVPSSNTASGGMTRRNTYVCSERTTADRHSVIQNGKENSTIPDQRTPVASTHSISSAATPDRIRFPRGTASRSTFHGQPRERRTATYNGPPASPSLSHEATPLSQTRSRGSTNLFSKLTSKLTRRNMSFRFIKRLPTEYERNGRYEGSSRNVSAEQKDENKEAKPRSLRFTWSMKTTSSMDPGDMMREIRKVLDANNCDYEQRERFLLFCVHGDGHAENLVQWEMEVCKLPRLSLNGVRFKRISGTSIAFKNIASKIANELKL

[4] = molecular target: Ribosomal protein S6 kinase alpha-4 (Homo sapiens) (UniProt O75676); test: Inhibition of human full length MSK2 expressed in baculovirus assessed as substrate phosphorylation using fluorescence-labelled peptides as substrate at 0.2 uM after 90 mins by microfluidic peptide phosphorylation assay
Chain of Ribosomal protein S6 kinase alpha-4 (Homo sapiens) (O75676 whole entry, looked up, the tested form may be a part): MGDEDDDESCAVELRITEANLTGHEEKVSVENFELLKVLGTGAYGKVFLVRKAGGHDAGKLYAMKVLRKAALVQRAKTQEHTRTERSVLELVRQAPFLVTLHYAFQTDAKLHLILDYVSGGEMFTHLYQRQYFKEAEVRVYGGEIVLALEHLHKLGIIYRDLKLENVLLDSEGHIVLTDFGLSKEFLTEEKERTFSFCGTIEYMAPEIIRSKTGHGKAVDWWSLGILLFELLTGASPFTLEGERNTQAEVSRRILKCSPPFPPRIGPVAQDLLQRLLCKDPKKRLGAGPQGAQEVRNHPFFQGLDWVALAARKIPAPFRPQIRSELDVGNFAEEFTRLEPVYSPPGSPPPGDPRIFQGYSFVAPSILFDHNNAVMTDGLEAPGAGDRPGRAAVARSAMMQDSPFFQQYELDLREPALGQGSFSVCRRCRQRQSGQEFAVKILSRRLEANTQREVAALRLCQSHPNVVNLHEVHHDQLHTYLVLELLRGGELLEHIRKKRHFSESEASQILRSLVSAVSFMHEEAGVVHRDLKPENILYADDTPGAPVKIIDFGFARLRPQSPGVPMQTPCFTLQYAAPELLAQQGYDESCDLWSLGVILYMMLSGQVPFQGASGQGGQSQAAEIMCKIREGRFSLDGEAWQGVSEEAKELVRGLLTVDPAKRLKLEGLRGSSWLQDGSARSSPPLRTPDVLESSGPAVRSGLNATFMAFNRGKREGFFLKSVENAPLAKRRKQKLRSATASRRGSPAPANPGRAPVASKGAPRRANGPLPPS

[5] = molecular target: Fibroblast growth factor receptor 1 (Homo sapiens) (UniProt P11362); test: Inhibition of human FGFR1 catalytic domain expressed in baculovirus assessed as substrate phosphorylation using fluorescence-labelled peptides as substrate at 2 uM after 90 mins by microfluidic peptide phosphorylation assay
Chain of Fibroblast growth factor receptor 1 (Homo sapiens) (P11362 22-822 limits assumed): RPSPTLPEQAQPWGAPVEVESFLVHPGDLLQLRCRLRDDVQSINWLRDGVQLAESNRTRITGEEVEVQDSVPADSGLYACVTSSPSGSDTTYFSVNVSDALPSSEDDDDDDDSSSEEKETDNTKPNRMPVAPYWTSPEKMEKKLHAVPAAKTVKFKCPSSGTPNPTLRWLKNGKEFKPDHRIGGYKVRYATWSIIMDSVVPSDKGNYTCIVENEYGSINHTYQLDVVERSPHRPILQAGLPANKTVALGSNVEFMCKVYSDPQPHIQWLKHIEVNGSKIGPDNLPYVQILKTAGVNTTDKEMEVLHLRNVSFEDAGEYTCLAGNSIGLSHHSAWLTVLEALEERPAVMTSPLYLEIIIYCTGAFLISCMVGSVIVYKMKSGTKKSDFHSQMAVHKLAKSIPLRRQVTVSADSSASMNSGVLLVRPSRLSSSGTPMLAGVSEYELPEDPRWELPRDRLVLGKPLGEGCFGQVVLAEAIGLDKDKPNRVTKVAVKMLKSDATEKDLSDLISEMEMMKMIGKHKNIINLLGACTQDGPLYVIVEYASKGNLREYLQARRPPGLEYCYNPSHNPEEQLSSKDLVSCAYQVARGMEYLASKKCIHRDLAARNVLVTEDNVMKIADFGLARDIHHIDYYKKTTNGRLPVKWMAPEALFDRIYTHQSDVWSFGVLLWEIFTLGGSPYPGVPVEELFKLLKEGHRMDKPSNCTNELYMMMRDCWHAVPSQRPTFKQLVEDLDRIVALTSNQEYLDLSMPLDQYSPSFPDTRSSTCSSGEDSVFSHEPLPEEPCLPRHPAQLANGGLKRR

[6] = molecular target: T2, Protein kinase C epsilon type (Homo sapiens) (UniProt Q02156); test: Inhibition of human truncated PKC epsilon expressed in baculovirus assessed as substrate phosphorylation using fluorescence-labelled peptides as substrate at 0.06 uM after 90 mins by microfluidic peptide phosphorylation assay
T2 sequence (whole entry): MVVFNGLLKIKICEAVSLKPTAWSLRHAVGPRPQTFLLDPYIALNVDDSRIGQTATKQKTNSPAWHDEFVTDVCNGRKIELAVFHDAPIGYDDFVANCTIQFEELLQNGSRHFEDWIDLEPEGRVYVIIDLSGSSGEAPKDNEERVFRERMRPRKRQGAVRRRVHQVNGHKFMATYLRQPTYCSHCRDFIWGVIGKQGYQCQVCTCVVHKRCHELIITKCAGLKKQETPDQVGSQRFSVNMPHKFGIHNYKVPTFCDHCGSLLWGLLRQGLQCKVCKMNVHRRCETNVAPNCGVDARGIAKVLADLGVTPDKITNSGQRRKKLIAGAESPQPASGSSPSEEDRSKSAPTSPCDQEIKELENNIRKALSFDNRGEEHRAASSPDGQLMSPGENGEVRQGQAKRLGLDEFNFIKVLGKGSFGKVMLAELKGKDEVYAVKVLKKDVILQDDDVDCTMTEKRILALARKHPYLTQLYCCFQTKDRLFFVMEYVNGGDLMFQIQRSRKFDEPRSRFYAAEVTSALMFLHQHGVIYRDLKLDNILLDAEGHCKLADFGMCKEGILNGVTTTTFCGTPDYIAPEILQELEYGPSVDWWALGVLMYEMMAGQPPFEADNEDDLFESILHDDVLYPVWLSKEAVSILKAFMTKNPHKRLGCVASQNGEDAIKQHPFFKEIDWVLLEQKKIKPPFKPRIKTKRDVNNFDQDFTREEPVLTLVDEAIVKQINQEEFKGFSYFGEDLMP

[7] = molecular target: Serine/threonine-protein kinase pim-1 (Homo sapiens) (UniProt P11309); test: Inhibition of human full length PIM1 expressed in baculovirus assessed as substrate phosphorylation using fluorescence-labelled peptides as substrate at 0.06 uM after 90 mins by microfluidic peptide phosphorylation assay
Chain of Serine/threonine-protein kinase pim-1 (Homo sapiens) (P11309 whole entry, looked up): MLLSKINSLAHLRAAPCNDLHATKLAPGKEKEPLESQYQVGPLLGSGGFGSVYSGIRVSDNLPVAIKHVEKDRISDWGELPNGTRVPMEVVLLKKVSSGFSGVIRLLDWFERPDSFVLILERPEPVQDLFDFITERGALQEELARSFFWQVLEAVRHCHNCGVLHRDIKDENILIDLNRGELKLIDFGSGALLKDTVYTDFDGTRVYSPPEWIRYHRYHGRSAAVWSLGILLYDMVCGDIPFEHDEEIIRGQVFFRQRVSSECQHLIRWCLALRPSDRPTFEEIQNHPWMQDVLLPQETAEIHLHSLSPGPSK

[8] = molecular target: Tyrosine-protein kinase Fyn (Homo sapiens) (UniProt P06241); test: Inhibition of human full length FYN expressed in baculovirus assessed as substrate phosphorylation using fluorescence-labelled peptides as substrate at 0.06 uM after 90 mins by microfluidic peptide phosphorylation assay
Chain of Tyrosine-protein kinase Fyn (Homo sapiens) (P06241 2-537 limits assumed): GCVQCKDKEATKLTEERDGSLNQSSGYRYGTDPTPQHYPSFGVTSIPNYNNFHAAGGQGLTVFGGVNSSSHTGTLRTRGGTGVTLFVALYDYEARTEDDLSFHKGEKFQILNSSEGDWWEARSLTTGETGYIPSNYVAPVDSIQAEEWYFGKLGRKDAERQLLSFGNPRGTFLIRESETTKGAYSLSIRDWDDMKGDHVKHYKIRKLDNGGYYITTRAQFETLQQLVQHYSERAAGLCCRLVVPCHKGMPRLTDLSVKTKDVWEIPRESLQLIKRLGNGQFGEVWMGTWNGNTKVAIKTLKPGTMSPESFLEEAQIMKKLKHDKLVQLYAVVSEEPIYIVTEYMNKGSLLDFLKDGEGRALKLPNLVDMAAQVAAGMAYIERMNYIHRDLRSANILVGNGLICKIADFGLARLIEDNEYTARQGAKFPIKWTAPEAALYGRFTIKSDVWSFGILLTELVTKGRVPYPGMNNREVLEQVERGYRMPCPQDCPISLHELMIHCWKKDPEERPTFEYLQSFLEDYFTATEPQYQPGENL

[9] = molecular target: Casein kinase I isoform delta (Homo sapiens) (UniProt P48730); test: Inhibition of human CK1D catalytic domain expressed in Escherichia coli cell assessed as substrate phosphorylation using fluorescence-labelled peptides as substrate at 0.06 uM after 90 mins by microfluidic peptide phosphorylation assay
Chain of Casein kinase I isoform delta (Homo sapiens) (P48730 whole entry, looked up, the tested form may be a part, canonical isoform): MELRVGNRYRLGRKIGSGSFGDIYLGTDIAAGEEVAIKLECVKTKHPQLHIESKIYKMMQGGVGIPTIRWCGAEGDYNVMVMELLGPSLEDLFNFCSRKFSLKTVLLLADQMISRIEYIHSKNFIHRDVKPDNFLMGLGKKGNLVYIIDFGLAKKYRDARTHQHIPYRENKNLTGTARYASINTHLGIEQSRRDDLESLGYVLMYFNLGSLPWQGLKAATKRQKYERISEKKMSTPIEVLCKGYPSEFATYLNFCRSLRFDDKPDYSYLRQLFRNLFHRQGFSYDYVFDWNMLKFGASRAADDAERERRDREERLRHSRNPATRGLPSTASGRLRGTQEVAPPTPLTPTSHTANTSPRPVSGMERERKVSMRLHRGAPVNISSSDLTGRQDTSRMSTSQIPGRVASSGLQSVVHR

[10] = molecular target: Serine/threonine-protein kinase Chk2 (Homo sapiens) (UniProt O96017); test: Inhibition of human full length CHK2 expressed in baculovirus assessed as substrate phosphorylation using fluorescence-labelled peptides as substrate at 420 uM after 90 mins by microfluidic peptide phosphorylation assay
[11] = molecular target: Tyrosine-protein kinase HCK (Homo sapiens) (UniProt P08631); test: Inhibition of human HCK catalytic domain expressed in baculovirus assessed as substrate phosphorylation using fluorescence-labelled peptides as substrate at 420 uM after 90 mins by microfluidic peptide phosphorylation assay
Chain of Tyrosine-protein kinase HCK (Homo sapiens) (P08631 2-526 limits assumed): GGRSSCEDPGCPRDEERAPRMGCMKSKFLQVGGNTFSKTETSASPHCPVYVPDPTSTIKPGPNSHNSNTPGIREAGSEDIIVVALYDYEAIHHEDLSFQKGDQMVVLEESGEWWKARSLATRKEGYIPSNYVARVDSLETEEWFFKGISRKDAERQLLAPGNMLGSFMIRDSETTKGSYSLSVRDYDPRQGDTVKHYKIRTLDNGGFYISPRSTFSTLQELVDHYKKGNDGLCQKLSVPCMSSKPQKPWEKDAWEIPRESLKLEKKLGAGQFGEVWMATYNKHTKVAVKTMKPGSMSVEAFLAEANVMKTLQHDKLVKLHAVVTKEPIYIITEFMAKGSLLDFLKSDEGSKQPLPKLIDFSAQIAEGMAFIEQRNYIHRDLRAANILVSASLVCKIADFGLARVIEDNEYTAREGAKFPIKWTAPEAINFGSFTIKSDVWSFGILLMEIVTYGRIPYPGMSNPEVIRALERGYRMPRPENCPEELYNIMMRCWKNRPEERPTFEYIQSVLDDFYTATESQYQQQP

[12] = molecular target: T3, Cytoplasmic tyrosine-protein kinase BMX (Homo sapiens) (UniProt P51813); test: Inhibition of human full length BMX expressed in baculovirus assessed as substrate phosphorylation using fluorescence-labelled peptides as substrate at 70 uM after 90 mins by microfluidic peptide phosphorylation assay
T3 sequence (whole entry): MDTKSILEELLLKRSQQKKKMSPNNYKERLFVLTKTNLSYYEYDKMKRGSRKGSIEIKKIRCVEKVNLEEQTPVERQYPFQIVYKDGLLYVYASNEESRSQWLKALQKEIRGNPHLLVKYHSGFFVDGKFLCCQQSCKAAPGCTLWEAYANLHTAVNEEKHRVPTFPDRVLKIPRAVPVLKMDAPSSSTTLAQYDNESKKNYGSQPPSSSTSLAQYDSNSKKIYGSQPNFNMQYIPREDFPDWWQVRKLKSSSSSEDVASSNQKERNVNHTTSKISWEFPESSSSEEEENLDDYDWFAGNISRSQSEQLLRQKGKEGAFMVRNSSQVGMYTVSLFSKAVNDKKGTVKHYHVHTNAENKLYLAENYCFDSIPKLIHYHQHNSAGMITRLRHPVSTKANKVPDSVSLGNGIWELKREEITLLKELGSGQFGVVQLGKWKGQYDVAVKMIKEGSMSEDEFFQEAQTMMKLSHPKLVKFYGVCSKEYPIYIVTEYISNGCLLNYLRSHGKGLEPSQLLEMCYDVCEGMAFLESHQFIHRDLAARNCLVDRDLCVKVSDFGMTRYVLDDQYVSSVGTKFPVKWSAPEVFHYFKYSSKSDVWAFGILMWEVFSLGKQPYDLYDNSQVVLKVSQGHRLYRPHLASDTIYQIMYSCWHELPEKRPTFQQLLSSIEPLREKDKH

## NCCc1ccc(-c2ncnc3[nH]cnc23)cc1
[1]
  inhibition: 72%
[2]
  inhibition: 13%
[3]
  inhibition: 18%

## Clc1ccc(C2(c3ccc(-c4ncnc5[nH]cnc45)cc3)CCNCC2)cc1
[4]
  inhibition: 82.5%

## NC1CCN(c2ncnc3[nH]ccc23)CC1
[5]
  inhibition: 1.5%

## NC1(Cc2ccc(Cl)cc2)CCN(c2ncnc3[nH]ccc23)CC1
[6]
  inhibition: 1.5%
[7]
  inhibition: 0%
[8]
  inhibition: 3%
[9]
  inhibition: 0.5%

## c1nc(N2CCOCC2)c2nc[nH]c2n1
[10]
  inhibition: 85%
[11]
  inhibition: 69.5%

## CNCc1ccc(-c2ncnc3[nH]cnc23)cc1
[12]
  inhibition: 0%
